US20250346600A1, “TRICYCLIC DERIVATIVES AND RELATED USES” (MOMA Therapeutics, Inc., priority 2023, published 2025)

Assays:
[1] = biological target: T1, Full length WRN protein (aa 2-1432) (Homo sapiens (Human), UniProt Q14191); experiment: WRN ATPase ADP-Glo biochemical assay, Assay Format A (10 μM ATP); settings: 0.25 nM WRN, 100 nM C6.18 ssDNA, 30 min preincubation, read-out: ATPase ADPGlo AC50 (uM)- Assay Format A
Method in brief: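 ADP-Glo luminescence measured hydrolysis of ATP by purified, baculovirus-expressed N-terminally tagged full-length WRN. Enzyme (0.5 nM) was preincubated 30 min with compound, then 200 nM ssDNA C6.18 plus 20 μM ATP were added (pre-mix levels) for 30 min at RT. IC50s come from four-parameter fits, geometric mean of at least two trials.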

HCT116 cells = experiment: HCT116 (MSI) 7 day viability, CellTiter Glo; format: cell-based; settings: Homo sapiens, HCT-116, 168 h, 7 days, read-out: HCT116 (MSI) Viability 7 Day Abs AC50
Method in brief: (§1)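 10 mM DMSO stocks serially diluted 3-fold, 10 steps; cells added (HCT116 50/well, HT29 500/well); 7 d, 37 °C, 5% CO2; CellTiter Glo 20 min RT; luminescence.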

HT29 cells = experiment: HT29 (MSS) 7 day viability, CellTiter Glo; format: cell-based; settings: Homo sapiens, HT-29, 168 h, 7 days, read-out: HT29 (MSS) Viability 7 Day CTGAbs AC50
Method in brief: as §1

[2] = biological target: T1, Full length WRN protein (aa 2-1432); experiment: WRN ATPase ADP-Glo biochemical assay, Assay Format B (100 μM ATP); settings: 0.25 nM WRN, 100 nM C6.18 ssDNA, 60 min preincubation, read-out: ATPase ADPGlo AC50 (uM)- Assay Format B

T1 sequence (Q14191 2-1432): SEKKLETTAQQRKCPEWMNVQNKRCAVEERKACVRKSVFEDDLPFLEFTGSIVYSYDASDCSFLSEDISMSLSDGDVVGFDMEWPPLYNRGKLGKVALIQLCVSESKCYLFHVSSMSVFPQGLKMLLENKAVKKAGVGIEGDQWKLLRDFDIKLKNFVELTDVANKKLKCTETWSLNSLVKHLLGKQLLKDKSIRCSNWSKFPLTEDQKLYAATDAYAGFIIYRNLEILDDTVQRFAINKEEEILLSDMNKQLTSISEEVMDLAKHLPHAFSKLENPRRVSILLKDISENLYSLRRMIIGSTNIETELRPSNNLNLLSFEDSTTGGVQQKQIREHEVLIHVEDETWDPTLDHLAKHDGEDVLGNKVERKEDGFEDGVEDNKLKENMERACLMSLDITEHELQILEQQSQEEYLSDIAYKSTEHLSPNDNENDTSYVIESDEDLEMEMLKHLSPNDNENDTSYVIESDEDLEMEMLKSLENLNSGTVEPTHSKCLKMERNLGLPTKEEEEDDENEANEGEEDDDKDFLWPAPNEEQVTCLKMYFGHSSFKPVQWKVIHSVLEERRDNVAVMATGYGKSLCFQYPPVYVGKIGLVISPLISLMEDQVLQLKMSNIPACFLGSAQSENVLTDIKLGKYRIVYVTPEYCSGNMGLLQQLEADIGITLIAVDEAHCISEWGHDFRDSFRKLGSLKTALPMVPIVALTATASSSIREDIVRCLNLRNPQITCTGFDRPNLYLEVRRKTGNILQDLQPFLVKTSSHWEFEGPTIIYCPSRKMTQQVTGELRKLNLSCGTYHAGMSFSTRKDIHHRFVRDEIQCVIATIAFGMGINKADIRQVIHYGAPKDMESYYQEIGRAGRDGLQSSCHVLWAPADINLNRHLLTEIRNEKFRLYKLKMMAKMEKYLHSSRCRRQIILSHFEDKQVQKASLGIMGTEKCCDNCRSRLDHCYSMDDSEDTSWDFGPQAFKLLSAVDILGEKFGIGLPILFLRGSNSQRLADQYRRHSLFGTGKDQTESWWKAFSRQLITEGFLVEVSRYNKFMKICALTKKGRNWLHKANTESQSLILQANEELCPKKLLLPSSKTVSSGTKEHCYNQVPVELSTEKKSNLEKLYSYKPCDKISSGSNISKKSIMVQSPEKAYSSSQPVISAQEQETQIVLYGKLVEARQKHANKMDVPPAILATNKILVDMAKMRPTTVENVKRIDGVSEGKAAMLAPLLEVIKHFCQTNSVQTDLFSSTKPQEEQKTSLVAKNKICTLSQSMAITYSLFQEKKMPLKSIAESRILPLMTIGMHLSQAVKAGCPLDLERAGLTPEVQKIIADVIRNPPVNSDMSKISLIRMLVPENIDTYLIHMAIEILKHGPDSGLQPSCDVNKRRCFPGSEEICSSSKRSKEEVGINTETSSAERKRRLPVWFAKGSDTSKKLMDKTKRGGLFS

Row | SMILES | AC50 [1] [µM] | AC50 (HCT116 cells) [nM] | AC50 (HT29 cells) [nM] | AC50 [2] [µM]
1 | C=CC(=O)N1CCc2nn(-c3ccc(C(C)C)cc3)c3c2C(C1)N(C(=O)c1cnc(C(F)(F)F)c(OC2CNC2)c1)CC3 (stereo not drawn) [Compound 60, 1-(5-(5-(azetidin-3-yloxy)-6-(trifluoromethyl)nicotinoyl)-2-(4-isopropylphenyl)-2,3,4,5,5a,6,8,9-octahydro-7H-1,2,5,7-tetraazabenzo[cd]azulen-7-yl)prop-2-en-1-one] | 0.005 to 0.015 | > 1000 | > 3000 | > 0.055
2 | C=CC(=O)N1CCc2nn(-c3ccc(C(C)C)cc3)c3c2C(C1)N(C(=O)c1ccc(Br)cc1C(N)=O)CC3 (stereo not drawn) [Compound 61, 2-(7-acryloyl-2-(4-isopropylphenyl)-3,4,5,5a,6,7,8,9-octahydro-2H-1,2,5,7-tetraazabenzo[cd]azulene-5-carbonyl)-5-bromobenzamide] | 0.005 to 0.015 | 250 to 500 | > 3000 | > 0.055
3 | C=CC(=O)N1CCc2nn(-c3ccc(C4CCC4)cc3O)c3c2C(C1)N(C(=O)c1cnc(Br)c(OC(F)(F)F)c1)CC3 (stereo not drawn) [Compound 62, 1-(5-(6-bromo-5-(trifluoromethoxy)nicotinoyl)-2-(4-cyclobutyl-2-hydroxyphenyl)-2,3,4,5,5a,6,8,9-octahydro-7H-1,2,5,7-tetraazabenzo[cd]azulen-7-yl)prop-2-en-1-one] | 0.0015 to 0.005 | 100 to 250 | > 3000 | > 0.055
4 | C=CC(=O)N1CCc2nn(-c3ccc(C4CC4)c(F)c3OC)c3c2C(C1)N(C(=O)c1cnc(C(F)(F)F)c(O)c1)CC3 (stereo not drawn) [Compound 63, 1-(2-(4-cyclopropyl-3-fluoro-2-methoxyphenyl)-5-(5-hydroxy-6-(trifluoromethyl)nicotinoyl)-2,3,4,5,5a,6,8,9-octahydro-7H-1,2,5,7-tetraazabenzo[cd]azulen-7-yl)prop-2-en-1-one] | 0.0015 to 0.005 | 500 to 1000 | > 3000 | 0.015 to 0.055
5 | C=CC(=O)N1CCc2nn(-c3ccc(C(C)C)cc3)c3c2C(C1)N(C(=O)c1ccc(Br)c2c1CCO2)CC3 (stereo not drawn) [Compound 65, 1-(5-(7-bromo-2,3-dihydrobenzofuran-4-carbonyl)-2-(4-isopropylphenyl)-2,3,4,5,5a,6,8,9-octahydro-7H-1,2,5,7-tetraazabenzo[cd]azulen-7-yl)prop-2-en-1-one] | < 0.0015 | 1 to 100 | > 3000 | 0.015 to 0.055
6 | C=CC(=O)N1CCc2nn(-c3ccc(C4CCC4)c(F)c3)c3c2C(C1)N(C(=O)c1cnc(C(F)(F)F)c(O)c1)CC3 (stereo not drawn) [Compound 66, 1-(2-(4-cyclobutyl-3-fluorophenyl)-5-(5-hydroxy-6-(trifluoromethyl)nicotinoyl)-2,3,4,5,5a,6,8,9-octahydro-7H-1,2,5,7-tetraazabenzo[cd]azulen-7-yl)prop-2-en-1-one] | < 0.0015 | 1 to 100 | > 3000 | 0.005 to 0.015
7 | C=CC(=O)N1CCc2nn(-c3ccc(C4CC4)cc3)c3c2C(C1)N(C(=O)c1ccc(C(F)(F)F)nc1N)CC3 (stereo not drawn) [Compound 67, 1-(5-(2-amino-6-(trifluoromethyl)nicotinoyl)-2-(4-cyclopropylphenyl)-2,3,4,5,5a,6,8,9-octahydro-7H-1,2,5,7-tetraazabenzo[cd]azulen-7-yl)prop-2-en-1-one] | 0.0015 to 0.005 | 1 to 100 | > 3000 | 0.005 to 0.015
8 | C=CC(=O)N1CCc2nn(-c3ccc(C4CC4)cc3)c3c2C(C1)N(C(=O)c1ccn(CC(F)(F)F)c(=O)c1)CC3 (stereo not drawn) [Compound 68, 4-(7-acryloyl-2-(4-cyclopropylphenyl)-3,4,5,5a,6,7,8,9-octahydro-2H-1,2,5,7-tetraazabenzo[cd]azulene-5-carbonyl)-1-(2,2,2-trifluoroethyl)pyridin-2(1H)-one] | > 0.055 | > 1000 | > 3000 | > 0.055
9 | C=CC(=O)N1CCc2nn(-c3ccc(C4CC4)cc3)c3c2C(C1)N(C(=O)c1ccc(OC(F)F)nc1)CC3 (stereo not drawn) [Compound 69, 1-(2-(4-cyclopropylphenyl)-5-(6-(difluoromethoxy)nicotinoyl)-2,3,4,5,5a,6,8,9-octahydro-7H-1,2,5,7-tetraazabenzo[cd]azulen-7-yl)prop-2-en-1-one] | 0.005 to 0.015 | 100 to 250 | > 3000 | 0.015 to 0.055
10 | C=CC(=O)N1CCc2nn(-c3ccc(C4CC4)cc3)c3c2C(C1)N(C(=O)c1ccc2c(c1)[nH]c(=O)n2C)CC3 (stereo not drawn) [Compound 70, 5-(7-acryloyl-2-(4-cyclopropylphenyl)-3,4,5,5a,6,7,8,9-octahydro-2H-1,2,5,7-tetraazabenzo[cd]azulene-5-carbonyl)-1-methyl-1,3-dihydro-2H-benzo[d]imidazol-2-one] | > 0.055 | > 1000 | > 3000 | > 0.055
11 | C=CC(=O)N1CC(OC)c2nn(-c3ccc(C4CCC4)cc3O)c3c2C(C1)N(C(=O)c1cnc(C(F)(F)F)c(O)c1)CC3 (stereo not drawn) [Compound 72, 1-(2-(4-cyclobutyl-2-hydroxyphenyl)-5-(5-hydroxy-6-(trifluoromethyl)nicotinoyl)-9-methoxy-2,3,4,5,5a,6,8,9-octahydro-7H-1,2,5,7-tetraazabenzo[cd]azulen-7-yl)prop-2-en-1-one] | < 0.0015 | 1 to 100 | > 3000 | 0.0015 to 0.005
12 | C=CC(=O)N1CCc2nn(-c3ccc(C(C)C)cc3)c3c2C(C1)N(C(=O)c1ccc(Br)c2ncn(CCOC)c12)CC3 (stereo not drawn) [Compound 73, 1-(5-(4-bromo-1-(2-methoxyethyl)-1H-benzo[d]imidazole-7-carbonyl)-2-(4-isopropylphenyl)-2,3,4,5,5a,6,8,9-octahydro-7H-1,2,5,7-tetraazabenzo[cd]azulen-7-yl)prop-2-en-1-one] | 0.0015 to 0.005 | 100 to 250 | > 3000 | 0.015 to 0.055
13 | C=CC(=O)N1CCc2nn(-c3ccc(C4CCC4)cc3O)c3c2C(C1)N(C(=O)c1ccc(OC(F)F)nc1)CC3 (stereo not drawn) [Compound 74, 1-(2-(4-cyclobutyl-2-hydroxyphenyl)-5-(6-(difluoromethoxy)nicotinoyl)-2,3,4,5,5a,6,8,9-octahydro-7H-1,2,5,7-tetraazabenzo[cd]azulen-7-yl)prop-2-en-1-one] | < 0.0015 | 1 to 100 | > 3000 | 0.005 to 0.015
14 | C=CC(=O)N1CCc2nn(-c3ccc(C4CCC4)cc3O)c3c2C(C1)N(C(=O)c1ccc(Br)c2[nH]c(CO)nc12)CC3 (stereo not drawn) [Compound 75, 1-(5-(7-bromo-2-(hydroxymethyl)-1H-benzo[d]imidazole-4-carbonyl)-2-(4-cyclobutyl-2-hydroxyphenyl)-2,3,4,5,5a,6,8,9-octahydro-7H-1,2,5,7-tetraazabenzo[cd]azulen-7-yl)prop-2-en-1-one] | < 0.0015 | 1 to 100 | > 3000 | 0.0015 to 0.005
15 | C=CC(=O)N1CCc2nn(-c3ccc(C(C)C)cc3)c3c2C(C1)N(C(=O)c1ccc(Br)c2ncn(CC4CCO4)c12)CC3 (stereo not drawn) [Compound 82, 1-(5-(4-bromo-1-((oxetan-2-yl)methyl)-1H-benzo[d]imidazole-7-carbonyl)-2-(4-isopropylphenyl)-2,3,4,5,5a,6,8,9-octahydro-7H-1,2,5,7-tetraazabenzo[cd]azulen-7-yl)prop-2-en-1-one] | 0.005 to 0.015 | 500 to 1000 | > 3000 | > 0.055
